Test results from patent US11440923B2, “Substituted macrocyclic indole derivatives” (Bayer Aktiengesellschaft, priority 2017, dated 2022).
Counter-ions that a name gives are not always drawn. Like-named read-outs stand apart in the source and are kept apart here.

Key:
HMC-1-8 cells = assay: Antiproliferation assay HMC-1-8 (Assay 7); format: cell-based
Method in brief: (§1)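 Anti-proliferative effect was measured by CellTiter-Glo ATP luminescence after 72 h compound exposure at 37° C, following overnight plating. IC50s were derived using a parallel time-zero plate and DMSO-treated controls as reference points.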

AMO-1 cells = assay: Antiproliferation assay AMO-1 (Assay 7); format: cell-based
Method in brief: as §1

SUDHL10 cells = assay: Induction of caspase-3/7 activity in SUDHL10 cells (Assay 4); format: cell-based
Method in brief: (§2)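 Read-out: Caspase-Glo 3/7 luminescence (1 h, 37 °C) after cells, plated overnight, were treated with compounds for 3 h at 37 °C. Signal corrected for cell-free medium background and expressed relative to DMSO control mean.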

SUDHL5 cells [1] = assay: Induction of caspase-3/7 activity in SUDHL5 cells (Assay 4); format: cell-based
Method in brief: as §2

BCL-XL = BCL-XL (Homo sapiens (Human), UniProt Q07817); assay: Protein-protein interaction assay BCL-XL/Bad BH3 peptide (BCL-XL assay, TR-FRET); format: binding; conditions: read-out: BCL-XL Assay IC50 (median)
BCL-XL, sequence (Q07817 1-212): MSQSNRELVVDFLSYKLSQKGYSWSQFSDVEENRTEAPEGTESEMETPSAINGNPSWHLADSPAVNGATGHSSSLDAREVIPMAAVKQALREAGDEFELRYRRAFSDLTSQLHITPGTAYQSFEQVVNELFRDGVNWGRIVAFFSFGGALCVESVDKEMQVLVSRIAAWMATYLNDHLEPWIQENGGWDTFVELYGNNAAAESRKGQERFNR
Method in brief: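 TR-FRET competition: 1 nM His-tagged human BCL-XL (1-212) versus 1 nM biotin-PEG Bad BH3 peptide tracer, buffer 50 mM Tris pH 7, NaCl, KF, DTT. Compound preincubated with protein 10 min at 22 °C; read after 1 h at 22 °C plus overnight at 4 °C. IC50 by 4-parameter regression of normalized ratios.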

SUDHL5 cells [2] = assay: Antiproliferation assay SUDHL5 (Assay 7); format: cell-based
Method in brief: as §1

[3] = Homo sapiens, SU-DHL-5, 72 h, read-out: Antiproli SUDHL5 IC50 (median), 72 h, CellTiter-Glo
[4] = 72 h, CellTiter-Glo; read-out: Antiproli HMC-1-8 IC50 median
[5] = 72 h, CellTiter-Glo, read-out: Antiproli AMO-1 IC50 median
[6] = caspase-3/7 induction, 3 h, read-out: Caspase SUDHL10 EC50 (median)
[7] = caspase-3/7 induction, 3 h, read-out: Caspase SUDHL5 EC50 (median)
[8] = 72 h, CellTiter-Glo, read-out: Antiproli SUDHL5 IC50 (median)
[9] = 72 h, CellTiter-Glo, read-out: Antiproli HMC-1-8 IC50 median
[10] = Homo sapiens, AMO1, 72 h, 72 h, CellTiter-Glo, read-out: Antiproli AMO-1 IC50 median
[11] = Homo sapiens, SU-DHL10, 3 h, caspase-3/7 induction, 3 h, read-out: Caspase SUDHL10 EC50 (median)
[12] = Homo sapiens, SU-DHL-5, 3 h, caspase-3/7 induction, 3 h, read-out: Caspase SUDHL5 EC50 (median)
[13] = Homo sapiens, SU-DHL-5, 72 h, 72 h, CellTiter-Glo, read-out: Antiproli SUDHL5 IC50 (median)

Compound | IC50 (BCL-XL) | IC50 (HMC-1-8 cells; [9]) | IC50 (AMO-1 cells; [10]) | EC50 (SUDHL10 cells; [11]) | EC50 (SUDHL5 cells [1]; [12]) | IC50 (SUDHL5 cells [2]; [13]) | further results
Cc1c2c(nn1C)C(CCN1CCOCC1)OCCCCn1c(C(=O)O)c(CCCOc3cccc4cc(F)ccc34)c3ccc(F)c-2c31 (single isomer, unassigned; enantiomer 1) [Example 20, 4-fluoro-7-{3-[(6-fluoronaphthalen-1-yl)oxy]propyl}-2,3-dimethyl-15-[2-(morpholin-4-yl)ethyl]-2,10,11,12,13,15-hexahydropyrazolo[4′,3′:9,10][1,6]oxazacycloundecino[8,7,6-hi]indole-8-carboxylic Acid—N-ethylethanamine (Enantiomer 1)] | > 20000 nM | – | – | – | – | – | IC50 (HMC-1-8 cells; 72 h, read-out: Antiproli HMC-1-8 IC50 median, 72 h, CellTiter-Glo): 460 nM; IC50 (AMO-1 cells; Homo sapiens, AMO1, 72 h, read-out: Antiproli AMO-1 IC50 median, 72 h, CellTiter-Glo): 94.5 nM; EC50 (SUDHL10 cells; Homo sapiens, SU-DHL10, 3 h, read-out: Caspase SUDHL10 EC50 (median), caspase-3/7 induction, 3 h): 32 nM; EC50 (SUDHL5 cells [1]; Homo sapiens, SU-DHL-5, 3 h, read-out: Caspase SUDHL5 EC50 (median), caspase-3/7 induction, 3 h): 29 nM; IC50 (SUDHL5 cells [2]; [3]): 20 nM
CCc1c2c(nn1C)C(CCOC)OCCCCn1c(C(=O)O)c(CCCOc3cccc4cc(F)ccc34)c3ccc(Cl)c-2c31 (single isomer, unassigned; enantiomer 1) [Example 42, (+)-4-chloro-3-ethyl-7-{3-[(6-fluoronaphthalen-1-yl)oxy]propyl}-15-(2-methoxyethyl)-2-methyl-2,10,11,12,13,15-hexahydropyrazolo[4′,3′:9,10][1,6]oxazacycloundecino[8,7,6-hi]indole-8-carboxylic Acid—N-ethylethanamine Salt (Enantiomer 1)] | 15000 nM | – | – | – | – | – | IC50 (HMC-1-8 cells; read-out: Antiproli HMC-1-8 IC50 median; 72 h, CellTiter-Glo): 1080 nM; IC50 (AMO-1 cells; read-out: Antiproli AMO-1 IC50 median, 72 h, CellTiter-Glo): 96.9 nM; EC50 (SUDHL10 cells; read-out: Caspase SUDHL10 EC50 (median), caspase-3/7 induction, 3 h): 52 nM; EC50 (SUDHL5 cells [1]; read-out: Caspase SUDHL5 EC50 (median), caspase-3/7 induction, 3 h): 14 nM; IC50 (SUDHL5 cells [2]; [3]): 52 nM
CCc1c2c(nn1C)C(CCN1CCOCC1)OCCCCn1c(C(=O)O)c(CCCOc3cccc4cc(F)ccc34)c3ccc(F)c-2c31 (single isomer, unassigned; enantiomer 2) [Example 51, (−)-3-ethyl-4-fluoro-7-{3-[(6-fluoronaphthalen-1-yl)oxy]propyl}-2-methyl-15-[2-(morpholin-4-yl)ethyl]-2,10,11,12,13,15-hexahydropyrazolo[4′,3′:9,10][1,6]oxazacycloundecino[8,7,6-hi]indole-8-carboxylic Acid (Enantiomer 2)] | > 20000 nM | – | – | – | – | – | IC50 (HMC-1-8 cells; [4]): 22000 nM; IC50 (AMO-1 cells; [5]): 10800 nM; EC50 (SUDHL10 cells; [6]): 9800 nM; EC50 (SUDHL5 cells [1]; [7]): 5000 nM; IC50 (SUDHL5 cells [2]; [8]): 2300 nM
CCC1OCCCCn2c(C(=O)O)c(CCCOc3cccc4ccccc34)c3ccc(Cl)c(c32)-c2c1nn(C)c2C (racemic) [Example 25, (rac)-4-chloro-15-ethyl-2,3-dimethyl-7-{3-[(naphthalen-1-yl)oxy]propyl}-2,10,11,12,13,15-hexahydropyrazolo[4′,3′:9,10][1,6]oxazacycloundecino[8,7,6-hi]indole-8-carboxylic Acid] | > 20000 nM | 12900 nM | 6550 nM | 10000 nM | 2000 nM | 2300 nM | –
CCc1c2c(nn1C)C(CCN1CCOCC1)OCCCCn1c(C(=O)O)c(CCCOc3cccc4ccccc34)c3ccc(F)c-2c31 (racemic) [Example 10, (rac)-3-ethyl-4-fluoro-2-methyl-15-[2-(morpholin-4-yl)ethyl]-7-[3-(naphthalen-1-yloxy)propyl]-2,10,11,12,13,15-hexahydropyrazolo[4′,3′:9,10][1,6]oxazacycloundecino[8,7,6-hi]indole-8-carboxylic Acid] | > 20000 nM | 1490 nM | 412 nM | 220 nM | 110 nM | 160 nM | –
CCc1c2c(nn1C)C(CCO)OCCCCn1c(C(=O)O)c(CCCOc3cccc4cc(F)ccc34)c3ccc(Cl)c-2c31 (racemic) [Example 44, (rac)-4-chloro-3-ethyl-7-{3-[(6-fluoronaphthalen-1-yl)oxy]propyl}-(15-rac)-(2-hydroxyethyl)-2-methyl-2,10,11,12,13,15-hexahydropyrazolo[4′,3′:9,10][1,6]oxazacycloundecino[8,7,6-hi]indole-8-carboxylic Acid] | 12500 nM | 2630 nM | 161 nM | 150 nM | 120 nM | 140 nM | –
CCc1c2c(nn1C)C(CCN1CCOCC1)OCCCCn1c(C(=O)O)c(CCCOc3cccc4cc(F)ccc34)c3ccc(Cl)c-2c31 (racemic) [Example 22, (rac)-4-chloro-3-ethyl-7-{3-[(6-fluoronaphthalen-1-yl)oxy]propyl}-2-methyl-15-[2-(morpholin-4-yl)ethyl]-2,10,11,12,13,15-hexahydropyrazolo[4′,3′:9,10][1,6]oxazacycloundecino[8,7,6-hi]indole-8-carboxylic Acid] | > 20000 nM | 279 nM | 32.2 nM | 20 nM | 10 nM | 13 nM | –
CCc1c2c(nn1C)C(CCCN1CCOCC1)OCCCCn1c(C(=O)O)c(CCCOc3cccc4cc(F)ccc34)c3ccc(Cl)c-2c31 (racemic) [Example 65, (rac)-4-chloro-3-ethyl-7-{3-[(6-fluoronaphthalen-1-yl)oxy]propyl}-2-methyl-(15-rac)-[3-(morpholin-4-yl)propyl]-2,10,11,12,13,15-hexahydropyrazolo[4′,3′:9,10][1,6]oxazacycloundecino[8,7,6-hi]indole-8-carboxylic Acid] | > 20000 nM | 400 nM | 89.7 nM | 42 nM | 48 nM | 490 nM | –

Now from value to compound, other results behind:

IC50 (BCL-XL) | Compound | IC50 (HMC-1-8 cells; [9]) | IC50 (AMO-1 cells; [10]) | EC50 (SUDHL10 cells; [11]) | EC50 (SUDHL5 cells [1]; [12]) | IC50 (SUDHL5 cells [2]; [13]) | further results
> 20000 nM | Cc1c2c(nn1C)C(CCN1CCOCC1)OCCCCn1c(C(=O)O)c(CCCOc3cccc4ccccc34)c3ccc(Cl)c-2c31 (single isomer, unassigned; enantiomer 1) [Example 14, 4-chloro-2,3-dimethyl-15-[2-(morpholin-4-yl)ethyl]-7-{3-[(naphthalen-1-yl)oxy]propyl}-2,10,11,12,13,15-hexahydropyrazolo[4′,3′:9,10][1,6]oxazacycloundecino[8,7,6-hi]indole-8-carboxylic Acid (Enantiomer 1)] | 381 nM | – | – | – | – | IC50 (AMO-1 cells; [5]): 43.1 nM; EC50 (SUDHL10 cells; [6]): 31 nM; EC50 (SUDHL5 cells [1]; [7]): 9.8 nM; IC50 (SUDHL5 cells [2]; [8]): 28 nM
19800 nM | Cc1c2c(nn1C)C(C1CC1)OCCCCn1c(C(=O)O)c(CCCOc3cccc4ccccc34)c3ccc(Cl)c-2c31 (racemic) [Example 28, (rac)-4-Chloro-15-cyclopropyl-2,3-dimethyl-7-{3-[(naphthalen-1-yl)oxy]propyl}-2,10,11,12,13,15-hexahydropyrazolo[4′,3′:9,10][1,6]oxazacycloundecino[8,7,6-hi]indole-8-carboxylic Acid] | 20800 nM | 10900 nM | 7200 nM | 2800 nM | 2700 nM | –
> 20000 nM | Cc1c2c(nn1C)C(CCO)OCCCCn1c(C(=O)O)c(CCCOc3cccc4ccccc34)c3ccc(Cl)c-2c31 (single isomer, unassigned; enantiomer 1) [Example 31, (+)-4-chloro-15-(2-hydroxyethyl)-2,3-dimethyl-7-{3-[(naphthalen-1-yl)oxy]propyl}-2,10,11,12,13,15-hexahydropyrazolo[4′,3′:9,10][1,6]oxazacycloundecino[8,7,6-hi]indole-8-carboxylic Acid (Enantiomer 1)] | – | – | – | – | – | IC50 (HMC-1-8 cells; [4]): 6800 nM; IC50 (AMO-1 cells; [5]): 326 nM; EC50 (SUDHL10 cells; [6]): 240 nM; EC50 (SUDHL5 cells [1]; [7]): 280 nM; IC50 (SUDHL5 cells [2]; [8]): 240 nM
